Measured values as given in patent US10428080B2, “TBK/IKK inhibitor compounds and uses thereof” (Merck Patent GmbH, priority 2015, dated 2019).
pIC50: −log10 of the molar value.

Columns and labels:
TBK1 = biological target: T1, TBK1 (Homo sapiens, UniProt Q9UHD2); assay: TBK Biochemical Assay; conditions: read-out: TBK1 IC50
T1 sequence (Q9UHD2 1-729): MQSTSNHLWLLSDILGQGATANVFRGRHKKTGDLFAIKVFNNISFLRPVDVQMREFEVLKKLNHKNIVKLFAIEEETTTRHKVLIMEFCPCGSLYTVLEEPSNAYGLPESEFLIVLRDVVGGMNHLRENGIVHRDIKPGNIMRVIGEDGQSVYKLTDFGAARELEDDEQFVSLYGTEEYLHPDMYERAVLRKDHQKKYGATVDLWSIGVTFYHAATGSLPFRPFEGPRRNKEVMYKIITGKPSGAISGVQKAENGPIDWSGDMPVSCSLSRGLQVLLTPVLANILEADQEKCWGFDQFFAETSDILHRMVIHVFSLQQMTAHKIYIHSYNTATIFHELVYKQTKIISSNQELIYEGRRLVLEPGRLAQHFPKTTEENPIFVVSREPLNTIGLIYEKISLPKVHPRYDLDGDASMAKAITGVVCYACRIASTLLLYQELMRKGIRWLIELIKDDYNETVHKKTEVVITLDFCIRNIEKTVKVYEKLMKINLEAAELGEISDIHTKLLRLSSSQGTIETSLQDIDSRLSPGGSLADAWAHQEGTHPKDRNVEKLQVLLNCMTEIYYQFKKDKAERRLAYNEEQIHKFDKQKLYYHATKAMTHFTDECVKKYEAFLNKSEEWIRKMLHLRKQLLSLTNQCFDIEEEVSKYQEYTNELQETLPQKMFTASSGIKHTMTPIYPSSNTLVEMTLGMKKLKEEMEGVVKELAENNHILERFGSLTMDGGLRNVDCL
How it was run: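 TBK1 enzyme and substrate incubated with compounds (10-point 1:4 dilution, top 30 uM final, 1% DMSO) for 90 min at 25° C, then stopped. Substrate/product peaks read by microfluidic mobility-shift (Caliper LabChip); 10 uM staurosporine as full-inhibition control.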

[1] = system: phosphorylation of the IRF-3 protein in MDA-MB-468 cells; assay: pIRF3 immunocytochemistry cell based assay; conditions: Homo sapiens; MDA-MB-468 cells, Poly(I:C) stimulation; read-out: pIRF3 IC50
How it was run: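 MDA-MB-468 cells got compounds (10-point, 3-fold from 10 uM) for 1 h at 37 °C, then 10 ug/ml Poly(I:C) for 2 h. Fixed, permeabilized cells were immunostained for pIRF3 with AlexaFluor488 and counterstained with PI. % phosphorylation was read by laser scanning cytometry, and IC50 curves were fitted.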

IKKε = biological target: T2, IKKε (Homo sapiens, UniProt Q14164); assay: IKKe Biochemical Assay; conditions: read-out: IKKε IC50
T2 sequence (Q14164 1-716): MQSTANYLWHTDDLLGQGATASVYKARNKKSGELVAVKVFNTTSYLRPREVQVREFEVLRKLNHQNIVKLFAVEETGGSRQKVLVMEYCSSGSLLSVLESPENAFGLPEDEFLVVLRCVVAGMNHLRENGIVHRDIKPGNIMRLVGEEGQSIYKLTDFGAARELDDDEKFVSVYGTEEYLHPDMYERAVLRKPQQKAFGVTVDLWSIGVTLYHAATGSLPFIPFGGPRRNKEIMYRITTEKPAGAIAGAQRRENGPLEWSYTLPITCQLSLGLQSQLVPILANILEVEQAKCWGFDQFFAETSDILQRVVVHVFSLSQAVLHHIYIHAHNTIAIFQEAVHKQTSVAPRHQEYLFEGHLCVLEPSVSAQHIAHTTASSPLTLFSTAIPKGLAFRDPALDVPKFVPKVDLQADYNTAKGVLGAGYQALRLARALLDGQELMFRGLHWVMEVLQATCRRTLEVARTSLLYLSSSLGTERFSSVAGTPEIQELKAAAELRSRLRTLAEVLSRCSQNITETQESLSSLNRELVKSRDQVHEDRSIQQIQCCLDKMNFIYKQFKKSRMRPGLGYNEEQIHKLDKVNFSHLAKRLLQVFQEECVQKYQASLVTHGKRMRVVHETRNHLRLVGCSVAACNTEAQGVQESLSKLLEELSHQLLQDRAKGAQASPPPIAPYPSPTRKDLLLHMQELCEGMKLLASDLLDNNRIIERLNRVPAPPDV
How it was run: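 Recombinant IKKε and substrate were incubated with compound (10-point 1:4 series, top 30 uM final, 1% DMSO) for 90 min at 25° C, then stopped. Substrate-to-product conversion was read by LabChip microfluidic mobility shift; 10 uM staurosporine served as full-inhibition wells.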

SMILES | pIC50 (TBK1) | pIC50 [1] | pIC50 (IKKε)
COc1cc(C(=O)N(C)C)cnc1-c1cc2nccc(-c3ccc(OC4CCOCC4F)c(C#N)c3)c2o1 (stereo not drawn) [Compound 486, 6-{7-[3-Cyano-4-(3-fluoro-tetrahydro-pyran-4-yloxy)-phenyl]-furo[3,2-b]pyridin-2-yl}-5-methoxy-N,N-dimethyl-nicotinamide] | > 7.00 | > 7.00 | > 7.00
COc1cc(C(=O)N(C)C)cnc1-c1cc2nccc(-c3ccc(OC4CCNC4)c(C#N)c3)c2o1 (stereo not drawn) [Compound 487, 6-{7-[3-Cyano-4-(pyrrolidin-3-yloxy)-phenyl]-furo[3,2-b]pyridin-2-yl}-5-methoxy-N,N-dimethyl-nicotinamide] | 6.00 to 7.00 | 6.00 to 7.00 | 6.00 to 7.00
COc1cc(C(=O)N(C)C)cnc1-c1cc2nccc(-c3ccc(N4CCC(F)C4)c(C#N)n3)c2o1 (stereo not drawn) [Compound 488, 2-{7-[6-Cyano-6-5-(3-fluoro-pyrrolidin-1-yl)-pyridin-3-yl]-furo[3,2-b]pyridin-2-yl}-5-methoxy-N,N-dimethyl-nicotinamide] | > 7.00 | 6.00 to 7.00 | > 7.00
COc1cc(C(=O)N(C)C)cnc1-c1cc2nccc(-c3cnc(N4CCC(F)C4)c(C#N)c3)c2o1 (stereo not drawn) [Compound 489] | > 7.00 | 6.00 to 7.00 | > 7.00
COc1cc(C(=O)N2CCC(O)C2)ccc1-c1cc2nccc(-c3ccc(OC4CCOCC4)c(C#N)c3)c2o1 (stereo not drawn) [Compound 492, 5-{2-[4-(3-Hydroxy-pyrrolidine-1-carbonyl)-2-methoxy-phenyl]-furo[3,2-b]pyridin-7-yl}-2-(tetrahydro-pyran-4-yloxy)-benzonitrile] | > 7.00 | 6.00 to 7.00 | > 7.00
COc1cc(C(=O)N[C@H]2CCN(C)C2)ccc1-c1cc2nccc(-c3ccc(OC4CCOCC4)c(C#N)c3)c2o1 [Compound 493, 5-{2-[4-(N—((S)-methyl-pyrrolidin-3-yl)-1-carbonyl)-2-methoxy-phenyl]-furo[3,2-b]pyridin-7-yl}-2-(tetrahydro-pyran-4-yloxy)-benzonitrile] | > 7.00 | 6.00 to 7.00 | > 7.00
COc1cc(C(=O)N[C@@H]2CCN(C)C2)ccc1-c1cc2nccc(-c3ccc(OC4CCOCC4)c(C#N)c3)c2o1 [Compound 494, 5-{2-[4-(N—((R)-methyl-pyrrolidin-3-yl)-1-carbonyl)-2-methoxy-phenyl]-furo[3,2-b]pyridin-7-yl}-2-(tetrahydro-pyran-4-yloxy)-benzonitrile] | > 7.00 | 6.00 to 7.00 | > 7.00
COc1cc(C(=O)N2CC(O)C2)ccc1-c1cc2nccc(-c3ccc(N4CC[C@@H](F)C4)c(C#N)c3)c2o1 [Compound 497, 2-((R)-3-Fluoro-pyrrolidin-1-yl)-5-{2-[4-(3-hydroxy-azetidine-1-carbonyl)-2-methoxy-phenyl]-furo[3,2-b]pyridin-7-yl}-benzonitrile] | > 7.00 | 6.00 to 7.00 | > 7.00
COc1cc(C(=O)NC2C3COCC32)ccc1-c1cc2nccc(-c3ccc(N4CC[C@@H](F)C4)c(C#N)c3)c2o1 (stereo partly drawn) [Compound 498] | 6.00 to 7.00 | 6.00 to 7.00 | > 7.00
COc1cc(C(=O)NCC(C)(C)N(C)C)ccc1-c1cc2nccc(-c3ccc(NC4CCOCC4)c(C#N)c3)c2o1 [Compound 499, 4-{7-[3-Cyano-4-(tetrahydro-pyran-4-ylamino)-phenyl]-furo[3,2-b]pyridin-2-yl}-N-(2-dimethylamino-2-methyl-propyl)-3-methoxy-benzamide] | > 7.00 | 6.00 to 7.00 | > 7.00
COc1cc(C(=O)NCC(C)(C)N(C)C)ccc1-c1cc2nccc(-c3ccc(OC4CCOCC4)c(C#N)c3)c2o1 [Compound 500, 4-{7-[3-Cyano-4-(tetrahydro-pyran-4-yloxy)-phenyl]-furo[3,2-b]pyridin-2-yl}-N-(2-dimethylamino-2-methyl-propyl)-3-methoxy-benzamide] | > 7.00 | 6.00 to 7.00 | > 7.00
COc1cc(C(=O)N2CC3CN(C)CC3C2)ccc1-c1cc2nccc(-c3ccc(N4CC[C@@H](F)C4)c(C#N)c3)c2o1 (stereo partly drawn) [Compound 501] | > 7.00 | 6.00 to 7.00 | > 7.00
COc1cc(C(=O)NC(C)(C)CN(C)C)ccc1-c1cc2nccc(-c3ccc(NC4C5COCC54)c(C#N)c3)c2o1 (stereo not drawn) [Compound 502, N-(2-dimethylamino-1,1-dimethyl-ethyl)-4-{7-[3-cyano-4-(3-oxa-bicyclo[3.1.0]hex-6-ylamino)-phenyl]-furo[3,2-b]pyridin-2-yl}-3-methoxy-benzamide] | > 7.00 | 6.00 to 7.00 | > 7.00
COc1cc(C(=O)N2CC3CCC2CN3C)ccc1-c1cc2nccc(-c3ccc(OC4CCOCC4)c(C#N)c3)c2o1 (stereo not drawn) [Compound 503] | > 7.00 | > 7.00 | > 7.00
COc1cc(C(=O)N2CC3COCC3C2)ccc1-c1cc2nccc(-c3ccc(OC4CCOCC4)c(C#N)c3)c2o1 (stereo not drawn) [Compound 504] | > 7.00 | 6.00 to 7.00 | > 7.00
COc1cc(C(=O)NC(C)(C)CCN(C)C)ccc1-c1cc2nccc(-c3ccc(OC4CCOCC4)c(C#N)c3)c2o1 [Compound 505, 4-{7-[3-Cyano-4-(tetrahydro-pyran-4-yloxy)-phenyl]-furo[3,2-b]pyridin-2-yl}-N-(3-dimethylamino-1,1-dimethyl-propyl)-3-methoxy-benzamide] | > 7.00 | 6.00 to 7.00 | > 7.00
COc1cc(C(=O)NCC(C)(C)CN(C)C)ccc1-c1cc2nccc(-c3ccc(OC4CCOCC4)c(C#N)c3)c2o1 [Compound 506, 4-{7-[3-Cyano-4-(tetrahydro-pyran-4-yloxy)-phenyl]-furo[3,2-b]pyridin-2-yl}-N-(3-dimethylamino-2,2-dimethyl-propyl)-3-methoxy-benzamide] | > 7.00 | 6.00 to 7.00 | > 7.00
COc1cc(C(=O)N2C[C@@H]3C[C@H]2CN3C)ccc1-c1cc2nccc(-c3ccc(OC4CCOCC4)c(C#N)c3)c2o1 [Compound 508] | > 7.00 | > 7.00 | > 7.00
COc1cc(C(=O)N2C3CCCC2CC3)ccc1-c1cc2nccc(-c3ccc(OC4CCOCC4)c(C#N)c3)c2o1 [Compound 509] | > 7.00 | 6.00 to 7.00 | > 7.00
COc1cc(C(=O)N2CC3CCC2CN3C)ccc1-c1cc2nccc(-c3ccc(NC4CCOCC4)c(C#N)c3)c2o1 (stereo not drawn) [Compound 510] | > 7.00 | > 7.00 | > 7.00
COc1cc(C(=O)N2CC3COCC3C2)ccc1-c1cc2nccc(-c3ccc(NC4CCOCC4)c(C#N)c3)c2o1 (stereo not drawn) [Compound 513] | > 7.00 | > 7.00 | > 7.00
COc1cc(C(=O)NC(C)(C)CCN(C)C)ccc1-c1cc2nccc(-c3ccc(NC4CCOCC4)c(C#N)c3)c2o1 [Compound 514, 4-{7-[3-Cyano-4-(tetrahydro-pyran-4-ylamino)-phenyl]-furo[3,2-b]pyridin-2-yl}-N-(3-dimethylamino-1,1-dimethyl-propyl)-3-methoxy-benzamide] | > 7.00 | > 7.00 | > 7.00
COc1cc(C(=O)N2C[C@@H]3C[C@H]2CN3C)ccc1-c1cc2nccc(-c3ccc(NC4CCOCC4)c(C#N)c3)c2o1 [Compound 515] | > 7.00 | > 7.00 | > 7.00
